For the experiment, the system named is A172 cells. The experiment can be described thus: Flow cytometry annexin V/PI staining, cell death pathway, A172. Type of experiment: cell-based, human. The following applies: A172, at IC50, 6, 18 and 24 h. As to the method: To confirm the cell death pathway, another approach to flow cytometry was used. […] Annexin V is a specific PS-binding protein, and thus it is used to detect apoptotic cells. Very few events could be observed in the first and the second quadrant, which represent apoptotic cells. Most events occurred in the third and the fourth quadrant, where unstained and necrotic cells were located. The 24 h measurements after both flow cytometry approaches were consistent with each other. […] Two approaches for flow cytometry were used—FDA/PI staining to determine cell viability and annexin V/PI staining for cell death pathway determination. For cell death pathway determination, cells were plated in 6-well plates at a density of 3 × 10^5 cells/well. […] After 6, 18, and 24 h incubation, adhered and floating cells were harvested, centrifuged at 1600 rpm, and washed with PBS. Next, the cells were washed with 1× annexin-binding buffer, and after centrifugation, cells from each test set were suspended in 100 µL of 1× annexin-binding buffer. To each tube, 5 µL of Alexa Fluor 488-annexin V stain was added, and the cells were incubated in the dark. After 15 min incubation, the cells were centrifuged at 1600 rpm to remove the dye, then suspended in 1 mL of 1× binding buffer and kept on ice. Prior to analysis, cells were stained for 2 min with 1 µM PI. […]
(In flow cytometry, cells or beads pass a laser one at a time.)

Structures are written as SMILES.

The text below walks through data of article PMC10889512, “Pyrimidine Schiff Bases: Synthesis, Structural Characterization and Recent Studies on Biological Activities” (International Journal of Molecular Sciences, 2024).

For the molecule `Cc1nc(-c2ccccc2)nc(Nc2ccc(F)cc2)c1C=Nc1cccc(Cl)c1` [compound 4b, 5-{[(3-chlorophenyl)imino]methyl}-N-(4-fluorophenyl)-6-methyl-2-phenylpyrimidin-4-amine], the cell death pathway result was “irreversible cell injury and necrosis”.
